Laboratory results taken from patent US20050236004A1, “Healthcare model of wellness” (priority 2004, published 2005).

Legend:
[1] = cited from earlier work
[2] = first principles model of blood serum level of a drug over time
Excerpt: The relevant internal variables for the modal of FIG. 18 are: • Ingested amount=I • Blood amount=B
The relevant parameters for the model are: • Digestion rate=κ • Absorption rates=α,β • Conversion rate=γ • Excretion rate=ω
The model equations are then: dI/dt=−αI−κ dB/dt−−ωB−γ+αl+κ−βD dD/dt=κ−βD In most cases, these parameters are not available directly, but most infer them from values such as the excretion half-life T1/2 and the time of maximum blood levels, Tmax. For most medications, the digestion and conversion rates are small or zero, and, as such, it is only necessary to estimate the absorption and excretion rates α and ω. […] The system of equations is then given by: dI/dt=αl dB/dt=−ωB+αl which can be solved exactly for the case of a single ingested amount I0 by converting to matrix form: dV/dt=MV where V the column vector [I,B] and M is the coefficient matrix [−α,0][α,−ω]. This matrix equation has the solution: V=exp(Mt)V0 Where exp(Mt) is the exponentiation of M as a matrix taylor series, and V0 is the initial vector. Inserting M=PDP^−1 where D is a diagonal matrix in the taylor series gives: exp(Mt)=Pexp(Dt)P^−1 The eigenvalues are easily given by setting det(D−λI)=0 giving (−α−λ)(−ω−λ)=0, and so λ=−α,−ω D=[−α,0][0,−ω] Solving for the eigenvectors of comprising P gives the following relationship: P=[ω−α)/α,0][1,1] […]

[3] = in vivo

Question: For `Cc1onc(-c2ccccc2)c1-c1ccc(S(N)(=O)=O)cc1` [BEXTRA, Valdecoxib], which Cmin ([1]; at 14 day equilibrium) is on record?
Answer: Its Cmin is 21.9 ng/mL.

Question: What about the “Area_Under_Curve(24 hr)” value ([1]; given value, 24 hr) of the same molecule?
Answer: Its value is 1479.0 ng·h/mL.

Question: What about the Cmax ([1]; given value) of the same molecule?
Answer: Its Cmax is 161.1 ng/mL.

Question: And the “Elimination Half-Life” value ([1]; given value)?
Answer: The value was 8.11 h.

Question: And the Tmax ([1]; given value)?
Answer: Its Tmax is 2.25 h.

Question: What about the “absorption coefficient α” value ([2]; computed from Tmax by iterative formula) of the same molecule?
Answer: The value was 1.293 h⁻¹.

Question: And the “excretion coefficient ω” value ([2]; ln(2)/half-life)?
Answer: Its value is 0.08547 h⁻¹.

Question: And the Cmax/AUC [3]?
Answer: Its Cmax/AUC is 0.1089.
